Measurements published in the supplement of paper PMC10307832.

Experiments:
Experiment in all cases: relative viability (nuclei count vs DMSO), 5 days (fraction); higher = more cells survive
Carboplatin + Tozasertib = compound: C1CC(C1)(C(=O)O)C(=O)O.[NH2-].[NH2-].[Pt+2] [Carboplatin] + Cc1cc(Nc2cc(N3CCN(C)CC3)nc(Sc3ccc(NC(=O)C4CC4)cc3)n2)n[nH]1 [Tozasertib] (partner 0.1 µM)
Summary of the method: (§1)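 Medians of duplicate plates are given as relative viability. That measure is the nuclei count in treated wells divided by the count in vehicle wells. Counts were taken on 4× images of lung cancer cell lines in 1536-well plates, 5 days after pin-tool dosing the day after seeding with one drug alone or a fixed anchor-drug dose plus five library-drug doses (not always all listed) in √10 steps.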

GSK126 + Linsitinib = compound: CC[C@H](C)N1C=C(C2=C(C=C(C=C21)C3=CN=C(C=C3)N4CCNCC4)C(=O)NCC5=C(C=C(NC5=O)C)C)C [GSK126] + C[C@]1(O)C[C@@H](c2nc(-c3ccc4ccc(-c5ccccc5)nc4c3)c3c(N)nccn32)C1 [Linsitinib] (partner 1 µM)
Summary of the method: as §1

Carboplatin + Vorinostat = compound: C1CC(C1)(C(=O)O)C(=O)O.[NH2-].[NH2-].[Pt+2] [Carboplatin] + O=C(CCCCCCC(=O)Nc1ccccc1)NO [Vorinostat] (partner 1 µM)
Summary of the method: as §1

MLN4924 + Phenformin = compound: NS(=O)(=O)OC[C@@H]1C[C@@H](n2ccc3c(N[C@H]4CCc5ccccc54)ncnc32)C[C@@H]1O [MLN4924] + N=C(N)NC(=N)NCCc1ccccc1 [Phenformin] (partner 250 µM)
Summary of the method: as §1

| Cell Line | relative viability (Carboplatin + Tozasertib; first compound 0.08 µM) | relative viability (Carboplatin + Tozasertib; first compound 0.253 µM) | relative viability (Carboplatin + Tozasertib; first compound 0.8 µM) | relative viability (Carboplatin + Tozasertib; first compound 2.53 µM) | relative viability (Carboplatin + Tozasertib; first compound 8 µM) | relative viability (GSK126 + Linsitinib; first compound 0.08 µM) | relative viability (GSK126 + Linsitinib; first compound 0.253 µM) | relative viability (GSK126 + Linsitinib; first compound 0.8 µM) | relative viability (GSK126 + Linsitinib; first compound 2.53 µM) | relative viability (GSK126 + Linsitinib; first compound 8 µM) | relative viability (Carboplatin + Vorinostat; first compound 0.08 µM) | relative viability (Carboplatin + Vorinostat; first compound 0.253 µM) | relative viability (Carboplatin + Vorinostat; first compound 0.8 µM) | relative viability (Carboplatin + Vorinostat; first compound 2.53 µM) | relative viability (Carboplatin + Vorinostat; first compound 8 µM) | relative viability (MLN4924 + Phenformin; first compound 0.04 µM) | relative viability (MLN4924 + Phenformin; first compound 0.1265 µM) | relative viability (MLN4924 + Phenformin; first compound 0.4 µM) | relative viability (MLN4924 + Phenformin; first compound 1.265 µM) | relative viability (MLN4924 + Phenformin; first compound 4 µM) |
| --- | --- | --- | --- | --- | --- | --- | --- | --- | --- | --- | --- | --- | --- | --- | --- | --- | --- | --- | --- | --- |
| LC-2-ad | 0.482 | 0.433 | 0.496 | 0.372 | 0.374 | 0.874 | 0.905 | 0.849 | 0.899 | 0.839 | 0.724 | 0.746 | 0.659 | 0.728 | 0.594 | 0.506 | 0.491 | 0.372 | 0.223 | 0.203 |
| LCLC-97TM1 | 0.235 | 0.292 | 0.249 | 0.192 | 0.212 | 0.164 |  | 0.179 | 0.225 | 0.204 | 0.753 | 0.749 | 0.661 | 0.504 | 0.654 | 0.417 | 0.314 | 0.288 | 0.108 | 0.137 |
| LCLC-103H | 0.517 | 0.466 | 0.439 | 0.532 | 0.473 | 1.13 | 1.16 | 1.06 | 1.07 | 1.08 | 0.804 | 0.785 | 0.72 | 0.768 | 0.692 | 0.358 | 0.368 | 0.347 | 0.157 | 0.143 |
| LK-2 | 0.16 | 0.168 | 0.184 | 0.163 | 0.137 | 0.397 | 0.485 | 0.626 | 0.944 | 0.352 | 0.154 | 0.299 | 0.273 | 0.306 | 0.31 | 0.312 | 0.31 | 0.262 | 0.167 | 0.173 |
| LOU-NH91 | 0.727 | 0.807 | 0.671 | 0.63 | 0.637 | 0.975 | 0.884 | 0.924 | 0.977 | 0.973 | 1.03 | 0.937 | 0.949 | 0.894 | 0.734 | 0.6 | 0.853 | 0.763 | 0.467 | 0.425 |
| LU99A | 0.282 | 0.279 | 0.248 | 0.258 | 0.212 | 0.52 | 0.513 | 0.605 | 0.503 | 0.652 | 0.507 | 0.577 | 0.485 | 0.418 | 0.292 | 0.477 | 0.622 | 0.437 | 0.196 | 0.213 |
| LXF-289 | 0.199 | 0.209 | 0.22 | 0.218 | 0.177 | 1.02 | 1 | 0.995 | 0.915 | 1 | 0.788 | 0.787 | 0.775 | 0.793 | 0.713 | 0.491 | 0.41 | 0.293 | 0.163 | 0.121 |
| NCI-H23 | 0.4 | 0.315 | 0.385 | 0.356 | 0.317 | 0.63 | 0.528 | 0.442 | 0.592 | 0.725 | 0.658 | 0.632 | 0.522 | 0.62 | 0.343 | 0.764 | 0.8 | 0.406 | 0.341 | 0.233 |
